Experimental data taken from EP4806427A2, “TOPICAL PHARMACEUTICAL COMPOSITIONS” (priority 2015, dated 2016).

Columns and labels:
AhR pathway = test: Target profiling; assay type: cell-based; settings: intestinal human colon adenocarcinoma
[1] = Gao et al. 2011; cited from earlier work
[2] = Solubility of the active ingredient in different solvents; assay type: physicochemical
Experimental: The solubility of the active ingredient in different solvents was determined. […] The following formulations were prepared with 5%, 10%, 15% and 20% MCT (Formulations 15-18). Two formulations (Formulations 19 and 20) were also prepared where Polawax (a proprietary blend of cetostearyl alcohol and emulsifiers) was replaced with cetostearyl alcohol and additional emulsifier.

[3] = 28 day twice daily topical administration: toxicokinetics, skin concentrations, dermal irritancy and toxicity; assay type: in vivo, Göttingen minipigs
Experimental: Following dose application on each dosing day, the dose sites were semi-occluded for approximately 20 ± 1 hours from the first dose and then gently washed before the next dose was applied.

AhR target gene, cyp1a1 = test: Expression of AhR target gene in keratinocytes and leukocytes; assay type: cell-based; settings: primary human keratinocytes, and human or rodent leukocytes
[4] = minipig, topical or ocular, 60 mg/kg/day

## CC(C)c1c(O)cc(/C=C/c2ccccc2)cc1O [3,5-Dihydroxy-4-isopropyl-trans-stilbene]
AhR pathway
  effect on the AhR pathway: activator
[1]
  sensitivity to oxidation and photo degradation: sensitive to oxidation and photo degradation
[2]; in medium chain triglycerides (MCT)
  solubility: good solubility
[2]; in water
  solubility: not soluble in water
[3]; 28 days, twice daily topical, ~10% of total body surface area, highest dose tested
  No Observed Adverse Effect Level (NOAEL) for dermal irritation or systemic toxicity: 3 % (w/w)
[3]; Male, 60 mg/kg/day, 40320 min
  Cmax Day 28: 0.845 ng/mL
[3]; minipig, in vivo
  dermal irritation and systemic toxicity: no dermal irritation or systemic toxicity
[3]; [4]
  gender-averaged skin concentration at necropsy, epidermis/upper dermis: 8265 ng/g
  gender-averaged skin concentration at necropsy, lower dermis: 1830 ng/g
AhR target gene, cyp1a1
  expression of the AhR target gene, cyp1a1: induce the expression
